Test results taken from US20240115649A1, “CASPASE INHIBITION TO ENHANCE REGENERATION AND REPAIR AFTER SKIN OR GUT INJURY AND TO TREAT BACTERIAL OR VIRAL INFECTIONS” (The Johns Hopkins University, priority 2020, published 2024).

Tests used:
[1] = target: T1, Staphopain A (sspP) (Staphylococcus aureus, UniProt P81297); experiment: Protease activity assays and protein blot, Staphopain A; format: biochemical, S. aureus
T1 construct: purchased CUSABIO

[2] = tested on: neutrophils; experiment: Flow cytometry of skin of Q-VD-OPh-treated mice; format: in vivo; details: Q-VD-OPh i.p.; unwounded skin; vs vehicle controls
Protocol: Flow Cytometry. Cell suspensions were prepared by digesting mouse skin tissue in a cocktail consisting of Liberase TL (Roche, 5401020001), DNase I (Sigma, DN25) and antibiotics (Invitrogen, 15140) in RPMI 1640 (Gibco, 11875093). For FACS, cells were washed and first viability stained using the Zombie Aqua dye (BioLegend, 423101). […] Finally, cells were resuspended in BD stabilizing fixative prior to FACS. All flow cytometry experiments were performed on a BD LSR II and downstream analysis of data was performed using Cytobank.

[3] = tested on: P. aeruginosa strain Xen41; experiment: Bacterial growth curve kinetics, P. aeruginosa broth cultures; format: cell-based; details: 10, 100 and 1,000 μg/mL; vs vehicle
[4] = tested on: S. aureus USA300 LAC::lux; experiment: Bacterial growth curve kinetics, S. aureus broth cultures; format: cell-based; details: 10, 100 and 1,000 μg/mL; 10 hours; vs vehicle
[5] = tested on: P. aeruginosa strain Xen41; experiment: P. aeruginosa skin infection model; format: in vivo; details: WT C57BL/6 mice; treatment at 4 hours; vs untreated
[6] = target: Streptopain (speB) (Streptococcus pyogenes, UniProt P0C0J0); format: biochemical, S. pyogenes
[7] = tested on: DSS treated C57BL/J6 mice; experiment: DSS-induced colitis model; format: in vivo
Excerpt: Histology. Biopsies from mouse colon and skin tissue were removed and fixed in 4% paraformaldehyde overnight and then transferred to 70% ethanol. Samples were then submitted to the Johns Hopkins Oncology Tissue Services Core facility where they were embedded in paraffin. Tissue sections were obtained at 4pin thickness and mounted onto glass slides, followed by hematoxylin and eosin (H&E) staining.
Colitis Model. In order to induce colitis, adult wild-type, Rnasel -A , and Il36r^−/− mice were fed up to 4% (w/v) 36-50 kDa dextran sodium sulfate (DSS) (MP Biomedicals, 160110) in sterile water^37. Weight changes were monitored and recorded every day. For rescue experiments using the pan-caspase inhibitor Q-VD-OPh, mice were treated at the same concentrations as in WIHN experiments and were injected intraperitoneally during the day when noticeable weight loss began to occur (˜day 3-4). Mice were eventually sacrificed and colon lengths were extracted for gross examination and downstream FACS and protein analysis.

T1 sequence (P81297 215-388): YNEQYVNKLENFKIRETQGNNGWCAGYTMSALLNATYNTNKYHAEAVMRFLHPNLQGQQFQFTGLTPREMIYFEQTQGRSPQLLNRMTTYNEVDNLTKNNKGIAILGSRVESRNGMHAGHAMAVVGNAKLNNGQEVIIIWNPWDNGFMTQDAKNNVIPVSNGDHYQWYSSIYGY
Streptopain (speB), sequence (P0C0J0 146-398 limits assumed): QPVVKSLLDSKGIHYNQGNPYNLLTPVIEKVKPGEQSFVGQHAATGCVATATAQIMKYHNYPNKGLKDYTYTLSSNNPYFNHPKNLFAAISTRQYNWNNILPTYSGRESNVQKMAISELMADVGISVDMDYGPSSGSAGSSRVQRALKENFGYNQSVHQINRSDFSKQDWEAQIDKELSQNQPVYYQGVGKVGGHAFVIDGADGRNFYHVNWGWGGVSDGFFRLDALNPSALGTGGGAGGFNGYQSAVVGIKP

In the case of `CC(C)[C@H](NC(=O)c1ccc2ccccc2n1)C(=O)N[C@@H](CC(=O)O)C(=O)COc1c(F)cccc1F` [Q-VD-OPH, Quinoline-val-asp-difluorophenoxymethyl ketone], the “physical conformational changes or degradation of sspP (protein blot)” value ([1]; 2 hours at 37° C.) is reported as “did not induce any physical conformational changes or cause degradation”, the “activity of sspP on gelatinase activity or elastin proteolysis” value ([1]; Q-VD-OPH 10 μg/mL, 20 hours) is reported as “did not affect the activity” and the “neutrophil levels in the skin” value [2] is reported as “higher neutrophil levels in the skin”. The “in vitro absorbance and bioluminescence” value [3] was “no differences in in vitro absorbance and bioluminescence”, the “in vitro absorbance, bioluminescence and CFU (direct antibacterial activity)” value [4] was “no differences in in vitro absorbance, bioluminescence and CFU” and the “bacterial burden (in vivo BLI)” value [5] was “modest but significantly decreased”. The skin lesion sizes [5] was “modest but significantly decreased skin lesion sizes”, the “physical conformational changes or degradation of speB (protein blot)” value ([6]; 2 hours at 37° C.) was “did not induce any physical conformational changes or cause degradation” and the “activity of speB on gelatinase activity or elastin proteolysis” value ([6]; 20 hours) was “did not affect the activity”. For the same compound, the “gut shortening after DSS treatment” value ([7]; Il36r^−/− mice) was “does not rescue gut shortening”, the weight loss ([7]; Il36r^−/− mice, DSS) was “does not rescue weight loss” and the “IL-36α expression in the gut” value ([7]; WT mice) was “Increased IL-36α expression”. The “neutrophil abundance in the blood or the gut” value ([7]; regenerative phase following cessation of DSS, vs controls) was “no change in neutrophil abundance”, the DSS-induced weight loss ([7]; wild-type mice, 4% DSS, Q-VD-OPh i.p. 1.33 mM, vs control) was “protected from DSS-induced weight loss” and the “colon length and morphology” value ([7]; wild-type mice, 4% DSS, Q-VD-OPh i.p., vs control) was “longer and better colon morphology”.
